How the values were obtained:
[1] = molecular target: T1, α1L9'Tβ2γ2L GABAA receptor (L9'T) (Rattus norvegicus, UniProt P18508+P62813+P63138, INS375LLRMFSFK/L290T); format: cell-based
T1 construct: expressed in transfected cells; host or cells: Xenopus laevis oocytes injected with mRNA (α:β:γ 1:1:10)
Text: (§1) We use the gain of function mutation α1L9'T that confers spontaneous channel gating in the absence of agonist that can be further modulated by BZDs ([Scheller and Forman, 2002]; [Chang and Weiss, 1999]). The primary purpose for this mutation is to enable macroscopic current responses to report on pore gating by a BZD in the absence of agonist. […] We restricted the scan primarily to the flexible loop between helical regions associated with M2 and M3 from α1L276-T283 (Figure 1; Figure 1—figure supplement 1). Two of these positions, α1A280 and α1A282, are natively alanine and were not mutated. Briefly, Xenopus laevis oocytes were co-injected with mRNA for α, β, and γ subunits in a 1:1:10 ratio, and current responses to microfluidic application of ligands were recorded in two-electrode voltage clamp. […] Current block by the pore blocker PTX was used to assess the amount of spontaneous activity and to correct for drift or rundown over the course of the experiment (see Figure 2—figure supplement 1).
(§2) BZD positive modulators alone evoke channel opening with extremely low probability ([Campo-Soria et al., 2006]), thus necessitating coapplication with an agonist to obtain robust currents from wild-type receptors ([Germann et al., 2019]). However, dissecting the effects of BZDs on either agonist binding or channel gating is severely challenged in the presence of an agonist because the two processes are intimately coupled ([Colquhoun, 1998]).
(§3) DNA for wild-type GABAAR rat α1, β2, and γ2L subunits were a gift from Dr. Cynthia Czajkowski. Single alanine substitutions were introduced throughout the α1M2–M3 linker from L276-T283 in addition to the gain of function α1L9'T pore mutation (rat α1L263T) (QuikChange II, […]). Mutations V279D and V279W were introduced similarly. Each construct was verified by forward and reverse sequencing of the entire gene. mRNA for each construct was generated (mMessage mMachine T7, Ambion) for expression in X. laevis oocytes (EcoCyte Bioscience, Austin, TX). Oocytes were injected with 27–54 ng of total mRNA for α, β, and γ subunits in a 1:1:10 ratio ([Boileau et al., 2002]) (Nanoject, Drummond Scientific). Oocytes were incubated in ND96 (in mM: 96 NaCl, 2 KCl, 1 MgCl2, 1.8 CaCl2, 5 HEPES, pH 7.2) with […] gentamicin at 18°C.
(§4) Currents from expressed channels 1–3 days post-injection were recorded in two-electrode voltage clamp (Dagan TEV-200, HEKA ITC and Patchmaster software). […] PTX was diluted from a 1 M stock solution in DMSO. […] Recorded currents were analyzed with custom scripts in MATLAB (Mathworks). Recordings of concentration–response relationships were bookended by pulses of PTX to correct for any drift or rundown during the experiment. Briefly, currents were baseline subtracted to correct for drift and then scaled by a linear fit to the peak of each PTX response to correct for rundown (Figure 2—figure supplement 1).

[2] = molecular target: T2, α1L9'T/V279Aβ2γ2L receptors (L9'T/V279A) (Rattus norvegicus, UniProt P18508+P62813+P63138, INS375LLRMFSFK/L290T/V306A); format: cell-based
T2 construct: expressed in transfected cells; host or cells: Xenopus laevis oocytes injected with mRNA (α:β:γ 1:1:10)
T2 sequence (P62813 28-455 L290T/V306A): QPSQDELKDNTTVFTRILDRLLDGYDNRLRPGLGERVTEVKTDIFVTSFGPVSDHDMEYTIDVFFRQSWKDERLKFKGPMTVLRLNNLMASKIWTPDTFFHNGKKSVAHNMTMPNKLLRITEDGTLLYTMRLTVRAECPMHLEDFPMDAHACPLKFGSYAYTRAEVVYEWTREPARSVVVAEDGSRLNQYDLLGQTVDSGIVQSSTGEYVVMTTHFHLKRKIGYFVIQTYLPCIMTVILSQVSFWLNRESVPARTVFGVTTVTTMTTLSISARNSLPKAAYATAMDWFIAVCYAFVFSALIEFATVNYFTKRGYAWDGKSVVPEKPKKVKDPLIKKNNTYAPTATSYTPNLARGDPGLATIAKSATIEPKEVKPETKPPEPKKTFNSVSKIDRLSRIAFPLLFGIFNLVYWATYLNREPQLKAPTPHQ
T2 sequence (P63138 25-474 limits assumed, stated change not applied): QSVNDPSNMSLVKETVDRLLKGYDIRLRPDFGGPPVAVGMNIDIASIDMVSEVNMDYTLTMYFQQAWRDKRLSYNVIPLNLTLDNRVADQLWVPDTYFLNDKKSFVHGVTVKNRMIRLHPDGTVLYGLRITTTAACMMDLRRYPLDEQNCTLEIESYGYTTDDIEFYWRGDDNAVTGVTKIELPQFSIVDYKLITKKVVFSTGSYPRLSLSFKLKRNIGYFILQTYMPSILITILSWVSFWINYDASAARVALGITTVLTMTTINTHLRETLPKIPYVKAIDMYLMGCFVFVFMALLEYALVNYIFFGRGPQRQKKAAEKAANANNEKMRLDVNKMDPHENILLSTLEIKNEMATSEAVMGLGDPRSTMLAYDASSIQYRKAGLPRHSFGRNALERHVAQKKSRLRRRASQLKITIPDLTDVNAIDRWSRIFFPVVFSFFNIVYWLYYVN
T2 sequence (P18508 with tags, fused parts or gaps INS375LLRMFSFK): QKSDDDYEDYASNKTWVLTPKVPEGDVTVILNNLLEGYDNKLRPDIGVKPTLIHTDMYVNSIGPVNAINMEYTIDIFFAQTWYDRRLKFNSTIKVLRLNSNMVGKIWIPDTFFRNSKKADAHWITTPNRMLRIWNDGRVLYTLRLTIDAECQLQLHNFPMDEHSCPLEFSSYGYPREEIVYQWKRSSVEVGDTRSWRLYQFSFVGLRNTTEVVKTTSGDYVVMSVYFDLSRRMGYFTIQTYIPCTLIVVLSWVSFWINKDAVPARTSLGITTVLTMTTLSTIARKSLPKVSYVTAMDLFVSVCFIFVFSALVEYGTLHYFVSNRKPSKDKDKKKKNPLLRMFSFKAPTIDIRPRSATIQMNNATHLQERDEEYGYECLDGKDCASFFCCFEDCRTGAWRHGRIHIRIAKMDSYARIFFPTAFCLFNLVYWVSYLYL
Text: as §1, §2, §3, §4

[3] = molecular target: T3, α1L9'T/Y281Aβ2γ2L GABAA receptor (L9'T/Y281A) (Rattus norvegicus, UniProt P18508+P62813+P63138, INS375LLRMFSFK/L290T/Y308A); format: cell-based
T3 construct: expressed in transfected cells; host or cells: Xenopus laevis oocytes injected with mRNA (α:β:γ 1:1:10)
T3 sequence (P62813 28-455 L290T/Y308A): as the sequence (P62813 28-455 L290T/V306A) above, with A279V, Y281A counted along it
T3 sequence (P63138 25-474 limits assumed, stated change not applied): as the sequence (P63138 25-474 limits assumed, stated change not applied) above
T3 sequence (P18508 with tags, fused parts or gaps INS375LLRMFSFK): as the sequence (P18508 with tags, fused parts or gaps INS375LLRMFSFK) above
Text: as §1, §2, §3, §4

[4] = molecular target: T4, α1L9'T/K278Aβ2γ2L receptors (L9'T/K278A) (Rattus norvegicus, UniProt P18508+P62813+P63138, INS375LLRMFSFK/K305A/L290T); format: cell-based
T4 construct: expressed in transfected cells; host or cells: Xenopus laevis oocytes injected with mRNA (α:β:γ 1:1:10)
T4 sequence (P62813 28-455 L290T/K305A): as the sequence (P62813 28-455 L290T/V306A) above, with K278A, A279V counted along it
T4 sequence (P63138 25-474 limits assumed, stated change not applied): as the sequence (P63138 25-474 limits assumed, stated change not applied) above
T4 sequence (P18508 with tags, fused parts or gaps INS375LLRMFSFK): as the sequence (P18508 with tags, fused parts or gaps INS375LLRMFSFK) above
Text: as §1, §2, §3, §4

[5] = molecular target: T5, α1L9'T/L276Aβ2γ2L GABAA receptor (L9'T/L276A) (Rattus norvegicus, UniProt P18508+P62813+P63138, INS375LLRMFSFK/L290T/L303A); format: cell-based
T5 construct: expressed in transfected cells; host or cells: Xenopus laevis oocytes injected with mRNA (α:β:γ 1:1:10)
T5 sequence (P62813 28-455 L290T/L303A): as the sequence (P62813 28-455 L290T/V306A) above, with L276A, A279V counted along it
T5 sequence (P63138 25-474 limits assumed, stated change not applied): as the sequence (P63138 25-474 limits assumed, stated change not applied) above
T5 sequence (P18508 with tags, fused parts or gaps INS375LLRMFSFK): as the sequence (P18508 with tags, fused parts or gaps INS375LLRMFSFK) above
Text: as §1, §2, §3, §4

[6] = molecular target: T6, α1L9'T/P277Aβ2γ2L GABAA receptor (L9'T/P277A) (Rattus norvegicus, UniProt P18508+P62813+P63138, INS375LLRMFSFK/L290T/P304A); format: cell-based
T6 construct: expressed in transfected cells; host or cells: Xenopus laevis oocytes injected with mRNA (α:β:γ 1:1:10)
T6 sequence (P62813 28-455 L290T/P304A): as the sequence (P62813 28-455 L290T/V306A) above, with P277A, A279V counted along it
T6 sequence (P63138 25-474 limits assumed, stated change not applied): as the sequence (P63138 25-474 limits assumed, stated change not applied) above
T6 sequence (P18508 with tags, fused parts or gaps INS375LLRMFSFK): as the sequence (P18508 with tags, fused parts or gaps INS375LLRMFSFK) above
Text: as §1, §2, §3, §4

[7] = molecular target: T7, α1L9'T/T283Aβ2γ2L GABAA receptor (L9'T/T283A) (Rattus norvegicus, UniProt P18508+P62813+P63138, INS375LLRMFSFK/L290T/T310A); format: cell-based
T7 construct: expressed in transfected cells; host or cells: Xenopus laevis oocytes injected with mRNA (α:β:γ 1:1:10)
T7 sequence (P62813 28-455 L290T/T310A): as the sequence (P62813 28-455 L290T/V306A) above, with A279V, T283A counted along it
T7 sequence (P63138 25-474 limits assumed, stated change not applied): as the sequence (P63138 25-474 limits assumed, stated change not applied) above
T7 sequence (P18508 with tags, fused parts or gaps INS375LLRMFSFK): as the sequence (P18508 with tags, fused parts or gaps INS375LLRMFSFK) above
Text: as §1, §2, §3, §4

[8] = molecular target: T8, α1L9'T/V279Dβ2γ2L GABAA receptor (L9'T/V279D) (Rattus norvegicus, UniProt P18508+P62813+P63138, INS375LLRMFSFK/L290T/V306D); format: cell-based
T8 construct: expressed in transfected cells; host or cells: Xenopus laevis oocytes injected with mRNA (α:β:γ 1:1:10)
T8 sequence (P62813 28-455 L290T/V306D): as the sequence (P62813 28-455 L290T/V306A) above, with A279D counted along it
T8 sequence (P63138 25-474 limits assumed, stated change not applied): as the sequence (P63138 25-474 limits assumed, stated change not applied) above
T8 sequence (P18508 with tags, fused parts or gaps INS375LLRMFSFK): as the sequence (P18508 with tags, fused parts or gaps INS375LLRMFSFK) above
Text: (§5) The M2–M3 linker has both high sequence and structural similarity in pLGICs. The valine at position 279 in the GABAAR α1 subunit is located near the center of the linker and is nearly always an aliphatic residue in different GABAAR subunits as well as in subunits of other pLGICs, with the exception of AChR, where it is a threonine. Even where sequences differ, structural models of the M2–M3 linker for multiple pLGICs are highly similar.
as §3, §4
(§6) where I is the peak current response, X is ligand concentration, EC50 is the concentration eliciting a half-maximal response, and n is the Hill slope.

[9] = molecular target: T9, α1L9'T/V279Wβ2γ2L GABAA receptor (L9'T/V279W) (Rattus norvegicus, UniProt P18508+P62813+P63138, INS375LLRMFSFK/L290T/V306W); format: cell-based
T9 construct: expressed in transfected cells; host or cells: Xenopus laevis oocytes injected with mRNA (α:β:γ 1:1:10)
T9 sequence (P62813 28-455 L290T/V306W): as the sequence (P62813 28-455 L290T/V306A) above, with A279W counted along it
T9 sequence (P63138 25-474 limits assumed, stated change not applied): as the sequence (P63138 25-474 limits assumed, stated change not applied) above
T9 sequence (P18508 with tags, fused parts or gaps INS375LLRMFSFK): as the sequence (P18508 with tags, fused parts or gaps INS375LLRMFSFK) above
Text: as §5, §3, §4, §6

[10] = molecular target: T10, α1V279Aβ2γ2L (V279A) receptors (Rattus norvegicus, UniProt P18508+P62813+P63138, INS375LLRMFSFK/V306A); test: Two-electrode voltage clamp of receptors expressed in Xenopus laevis oocytes (V279A); format: cell-based
T10 construct: expressed in transfected cells; host or cells: Xenopus laevis oocytes injected with mRNA (α:β:γ 1:1:10)
T10 sequence (P62813 28-455 V306A): as the sequence (P62813 28-455 L290T/V306A) above, with T263L counted along it
T10 sequence (P63138 25-474 limits assumed, stated change not applied): as the sequence (P63138 25-474 limits assumed, stated change not applied) above
T10 sequence (P18508 with tags, fused parts or gaps INS375LLRMFSFK): as the sequence (P18508 with tags, fused parts or gaps INS375LLRMFSFK) above
Text: as §3, §4, §6

[11] = molecular target: α1L9'Tβ2γ2L, α1L9'T/V279Aβ2γ2L, and α1β2γ2L receptors; test: MWC model of channel gating, global fit to estimated open probability; conditions: MWC model parameter, global optimisation
[12] = molecular target: T11, α1β2γ2L (wild-type) GABAA receptors (Rattus norvegicus, UniProt P18508+P62813+P63138, INS375LLRMFSFK); test: Two-electrode voltage clamp of receptors expressed in Xenopus laevis oocytes (wild-type); format: cell-based; conditions: WT; 10 μM GABA + 1 μM FG-7142
T11 construct: expressed in transfected cells; host or cells: Xenopus laevis oocytes injected with mRNA (α:β:γ 1:1:10)
T11 sequence (P62813 28-455, stated change not applied): as the sequence (P62813 28-455 L290T/V306A) above, with T263L, A279V counted along it
T11 sequence (P63138 25-474 limits assumed, stated change not applied): as the sequence (P63138 25-474 limits assumed, stated change not applied) above
T11 sequence (P18508 with tags, fused parts or gaps INS375LLRMFSFK): as the sequence (P18508 with tags, fused parts or gaps INS375LLRMFSFK) above
Text: as §3
as §4, with “Briefly, currents were baseline subtracted to correct for drift and then scaled by a linear fit to the peak of each PTX response to correct for rundown (Figure 2—figure supplement 1).” left out

T1 sequence (P62813 28-455 L290T): as the sequence (P62813 28-455 L290T/V306A) above, with A279V counted along it
T1 sequence (P63138 25-474 limits assumed, stated change not applied): as the sequence (P63138 25-474 limits assumed, stated change not applied) above
T1 sequence (P18508 with tags, fused parts or gaps INS375LLRMFSFK): as the sequence (P18508 with tags, fused parts or gaps INS375LLRMFSFK) above

`CN1C(=O)CN=C(c2ccccc2)c2cc(Cl)ccc21` [DZ, diazepam] was tested, and the DZ hill slope [1] was 1.10, the “ΔΔGDZ (DZ's energetic contribution to pore gating, ΔG1 − ΔG0)” value (shortened to “ΔΔGDZ”) [1] was −0.31 ± 0.04 (5) kcal/mol and the DZ hill slope [2] was 0.98. The “dV279A (factor by which DZ binding influences channel opening)” value [2] was 0.20, the “ΔΔGDZ” value [2] was −1.11 ± 0.30 (5) kcal/mol and the DZ hill slope [3] was 1.14. The “ΔΔGDZ” value [3] was −0.42 ± 0.07 (4) kcal/mol, the DZ hill slope [4] was 0.97 and the “ΔΔGDZ” value [4] was −0.44 ± 0.08 (4) kcal/mol. The DZ hill slope [5] was 0.61, the “ΔΔGDZ” value [5] was −0.45 ± 0.04 (5) kcal/mol and the DZ hill slope [6] was 1.24. The “ΔΔGDZ” value [6] was −0.46 ± 0.20 (5) kcal/mol, the DZ hill slope [7] was 1.42 and the “ΔΔGDZ” value [7] was −0.38 ± 0.04 (6) kcal/mol. The DZ hill slope [8] was 0.58, the “ΔΔGDZ” value [8] was −0.52 ± 0.02 (3) kcal/mol and the DZ hill slope [9] was 0.90. For the same molecule, the “ΔΔGDZ” value [9] was −0.53 ± 0.10 (3) kcal/mol, the “DZ potentiation of GABA-evoked peak current responses” value ([10]; V279A vs wild-type, 1 μM DZ, EC20-25 (30 μM) or EC100 GABA) was “to a greater extent in V279A than in wild-type receptors” and the “DZ potentiation of currents evoked with a saturating concentration of GABA” value ([10]; V279A, 1 μM DZ, EC100 GABA 3–30 mM) was “potentiates V279A currents evoked with a saturating concentration of GABA”. It also gave a Kd ([11]; read-out: KD (dissociation constant for DZ)) of 180 nM.
In the case of `CNC(=O)c1cc2c(cn1)[nH]c1ccccc12` [FG-7142], the “Effect of FG-7142 on responses to ~EC20-25 GABA” value [12] is reported as “reduced” and the “Effect of FG-7142 on responses to ~EC20-25 GABA” value ([10]; V279A, 30 μM GABA + 1 μM FG-7142, compared with WT) is reported as “to a slightly lesser extent in V279A”.
With `NCCCC(=O)O` [GABA] the “c (factor by which GABA binding influences channel opening)” value [11] was 0.0031.
picrotoxin [PTX] was tested, and the “IPTX /IGABA-max (ratio of PTX-sensitive to maximal GABA-evoked current amplitude)” value ([1]; L9'T, 1 mM PTX, saturating GABA, mean ± SD (# oocytes)) was 0.36 ± 0.04 (5), the “IPTX /IGABA-max (ratio of PTX-sensitive to maximal GABA-evoked current amplitude)” value ([2]; L9'T/V279A, 1 mM PTX, saturating GABA, mean ± SD) was 0.17 ± 0.04 (4) and the “IPTX /IGABA-max (ratio of PTX-sensitive to maximal GABA-evoked current amplitude)” value ([3]; L9'T/Y281A, 1 mM PTX, saturating GABA, mean ± SD) was 0.25 ± 0.07 (5). For the same molecule, the “IPTX /IGABA-max (ratio of PTX-sensitive to maximal GABA-evoked current amplitude)” value ([4]; L9'T/K278A, 1 mM PTX, saturating GABA, mean ± SD) was 0.20 ± 0.06 (5), the “IPTX /IGABA-max (ratio of PTX-sensitive to maximal GABA-evoked current amplitude)” value ([5]; L9'T/L276A, 1 mM PTX, saturating GABA, mean ± SD) was 0.22 ± 0.09 (4) and the “IPTX /IGABA-max (ratio of PTX-sensitive to maximal GABA-evoked current amplitude)” value ([6]; L9'T/P277A, 1 mM PTX, saturating GABA, mean ± SD) was 0.45 ± 0.03 (3). The “IPTX /IGABA-max (ratio of PTX-sensitive to maximal GABA-evoked current amplitude)” value ([7]; L9'T/T283A, 1 mM PTX, saturating GABA, mean ± SD) was 0.11 ± 0.03 (5), the “IPTX /IGABA-max (ratio of PTX-sensitive to maximal GABA-evoked current amplitude)” value ([8]; L9'T/V279D, 1 mM PTX, saturating GABA, mean ± SD) was 0.02 ± 0.005 (3) and the “IPTX /IGABA-max (ratio of PTX-sensitive to maximal GABA-evoked current amplitude)” value ([9]; L9'T/V279W, 1 mM PTX, saturating GABA, mean ± SD) was 0.16 ± 0.05 (2).

Reference: PMC7899671 (eLife, 2021)
